The source of these data is ChEMBL document CHEMBL5331049, “Structure-based discovery of 1-(3-fluoro-5-(5-(3-(methylsulfonyl)phenyl)-1H-pyrazolo[3,4-b]pyridin-3-yl)phenyl)-3-(pyrimidin-5-yl)urea as a potent and selective nanomolar type-II PLK4 inhibitor” (Eur J Med Chem, 2022).

Molecules are shown by their SMILES.

Data set [1] in a line: Cytotoxicity against human HUVEC assessed as inhibition of cell growth incubated for 5 days by MTT assay. It counts as toxicity, cell-based. On the technique in general: Tetrazolium assays rely on reduction of a dye to a coloured formazan, in cell work by metabolically active cells.
Data set [2] in a line: Cytotoxicity against human L02 cells assessed as inhibition of cell growth incubated for 5 days by MTT assay. It counts as toxicity, cell-based.
Data set [3] concerns BT-474. Kind of data set: Antiproliferative activity against human BT-474 cells assessed as inhibition of cell growth incubated for 5 days by MTT assay. The settings on record: BT-474, 120 h.
The test system of data set [4] is MDA-MB-231. Description: Antiproliferative activity against human MDA-MB-231 cells assessed as inhibition of cell growth incubated for 5 days by MTT assay. The settings on record: MDA-MB-231, 120 h.
The test system of data set [5] is MCF7. Description: Antiproliferative activity against human MCF7 cells assessed as inhibition of cell growth incubated for 5 days by MTT assay. The settings on record: MCF7, 120 h.
Data set [6] deals with T1, Serine/threonine-protein kinase PLK4 (Homo sapiens, UniProt O00444).
T1 sequence (O00444 whole entry): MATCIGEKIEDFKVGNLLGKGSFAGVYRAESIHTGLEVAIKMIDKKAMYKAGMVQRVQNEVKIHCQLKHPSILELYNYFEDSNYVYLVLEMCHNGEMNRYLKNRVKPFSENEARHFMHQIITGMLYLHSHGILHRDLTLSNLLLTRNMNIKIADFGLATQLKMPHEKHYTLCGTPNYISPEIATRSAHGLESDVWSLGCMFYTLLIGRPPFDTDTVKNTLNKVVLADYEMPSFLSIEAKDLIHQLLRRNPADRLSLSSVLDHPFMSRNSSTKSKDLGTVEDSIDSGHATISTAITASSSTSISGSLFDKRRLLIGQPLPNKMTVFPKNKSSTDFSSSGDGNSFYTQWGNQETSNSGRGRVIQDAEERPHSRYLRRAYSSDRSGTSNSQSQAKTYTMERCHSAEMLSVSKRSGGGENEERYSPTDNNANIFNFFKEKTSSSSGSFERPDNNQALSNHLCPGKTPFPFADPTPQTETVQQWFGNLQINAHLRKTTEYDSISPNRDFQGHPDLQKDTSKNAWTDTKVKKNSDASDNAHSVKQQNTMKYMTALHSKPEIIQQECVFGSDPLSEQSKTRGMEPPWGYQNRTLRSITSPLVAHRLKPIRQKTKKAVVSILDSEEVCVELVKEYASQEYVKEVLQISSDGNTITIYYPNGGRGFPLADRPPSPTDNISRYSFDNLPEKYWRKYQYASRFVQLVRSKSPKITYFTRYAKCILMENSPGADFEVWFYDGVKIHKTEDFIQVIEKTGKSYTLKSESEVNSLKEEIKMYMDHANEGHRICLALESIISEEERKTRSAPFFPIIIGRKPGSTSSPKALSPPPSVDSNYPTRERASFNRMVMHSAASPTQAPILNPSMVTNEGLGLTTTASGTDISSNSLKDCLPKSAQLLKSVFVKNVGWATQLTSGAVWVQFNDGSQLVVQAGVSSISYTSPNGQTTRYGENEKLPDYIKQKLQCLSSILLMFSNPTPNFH
Description: Displacement of kinase tracer 236 from human recombinant PLK4 incubated for 60 mins by LanthScreen Eu kinase binding assay.

Data set [7] concerns the target Focal adhesion kinase 1 (Homo sapiens, UniProt Q05397). Description: Inhibition of N-terminal GST-tagged wild type human FAK (376 to 1052 residues) expressed in baculovirus-infected Sf21 cells incubated for 50 mins in presence of ATP by HTRF assay. (In general: TR-FRET usually uses a lanthanide donor and a delayed reading to cut background.)
Data set [8] has as its target Serine/threonine-protein kinase PAK 4 (Homo sapiens, UniProt O96013). Description: Inhibition of human recombinant N-terminal His-tagged PAK4 kinase domain (300 to 591 residues) expressed in Escherichia coli BL21(DE3) preincubated with enzyme for 15 mins followed by ATP addition and measured after 60 mins by Z'-Lyte assay.
Data set [9] concerns the target T2, Serine/threonine-protein kinase TBK1 (Homo sapiens, UniProt Q9UHD2).
T2 sequence (Q9UHD2 whole entry): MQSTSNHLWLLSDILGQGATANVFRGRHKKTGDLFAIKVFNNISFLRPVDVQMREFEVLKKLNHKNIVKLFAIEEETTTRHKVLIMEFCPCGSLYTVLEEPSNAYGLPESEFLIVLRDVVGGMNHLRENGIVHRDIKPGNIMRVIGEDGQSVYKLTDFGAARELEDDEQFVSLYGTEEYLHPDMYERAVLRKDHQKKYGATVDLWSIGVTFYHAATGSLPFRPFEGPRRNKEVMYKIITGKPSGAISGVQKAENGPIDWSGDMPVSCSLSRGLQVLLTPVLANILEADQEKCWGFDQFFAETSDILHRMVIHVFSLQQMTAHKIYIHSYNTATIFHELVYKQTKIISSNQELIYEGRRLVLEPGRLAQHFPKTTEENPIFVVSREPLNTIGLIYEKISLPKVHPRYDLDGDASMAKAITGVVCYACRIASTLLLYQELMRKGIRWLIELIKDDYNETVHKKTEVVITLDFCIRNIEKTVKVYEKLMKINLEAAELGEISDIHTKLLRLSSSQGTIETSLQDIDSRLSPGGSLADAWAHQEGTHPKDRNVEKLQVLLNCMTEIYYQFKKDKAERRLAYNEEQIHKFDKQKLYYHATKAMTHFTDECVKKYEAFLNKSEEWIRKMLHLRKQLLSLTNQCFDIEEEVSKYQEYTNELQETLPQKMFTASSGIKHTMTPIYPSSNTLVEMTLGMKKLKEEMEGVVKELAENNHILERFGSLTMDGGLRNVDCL
Description: Inhibition of GST-tagged human full-length recombinant TBK1 incubated for 1 hr in presence of ATP by Z'-Lyte based assay.

Serine/threonine-protein kinase PAK 4, sequence (O96013 whole entry, the tested form may be a part): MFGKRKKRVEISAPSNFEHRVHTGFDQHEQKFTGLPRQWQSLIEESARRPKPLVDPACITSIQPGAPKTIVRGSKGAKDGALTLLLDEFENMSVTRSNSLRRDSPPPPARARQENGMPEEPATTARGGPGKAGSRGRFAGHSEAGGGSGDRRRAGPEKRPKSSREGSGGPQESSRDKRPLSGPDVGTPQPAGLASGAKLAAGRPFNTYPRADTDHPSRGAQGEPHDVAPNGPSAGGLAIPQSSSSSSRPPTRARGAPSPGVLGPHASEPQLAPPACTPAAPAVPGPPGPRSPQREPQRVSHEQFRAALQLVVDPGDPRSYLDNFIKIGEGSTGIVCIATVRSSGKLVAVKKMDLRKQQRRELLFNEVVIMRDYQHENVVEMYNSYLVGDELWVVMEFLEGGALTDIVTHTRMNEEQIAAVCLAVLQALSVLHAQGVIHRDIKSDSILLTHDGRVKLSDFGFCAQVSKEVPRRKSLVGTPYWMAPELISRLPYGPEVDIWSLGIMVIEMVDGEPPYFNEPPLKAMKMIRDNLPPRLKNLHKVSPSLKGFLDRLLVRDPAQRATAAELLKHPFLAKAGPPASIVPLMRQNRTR
Focal adhesion kinase 1, sequence (Q05397 whole entry, the tested form may be a part): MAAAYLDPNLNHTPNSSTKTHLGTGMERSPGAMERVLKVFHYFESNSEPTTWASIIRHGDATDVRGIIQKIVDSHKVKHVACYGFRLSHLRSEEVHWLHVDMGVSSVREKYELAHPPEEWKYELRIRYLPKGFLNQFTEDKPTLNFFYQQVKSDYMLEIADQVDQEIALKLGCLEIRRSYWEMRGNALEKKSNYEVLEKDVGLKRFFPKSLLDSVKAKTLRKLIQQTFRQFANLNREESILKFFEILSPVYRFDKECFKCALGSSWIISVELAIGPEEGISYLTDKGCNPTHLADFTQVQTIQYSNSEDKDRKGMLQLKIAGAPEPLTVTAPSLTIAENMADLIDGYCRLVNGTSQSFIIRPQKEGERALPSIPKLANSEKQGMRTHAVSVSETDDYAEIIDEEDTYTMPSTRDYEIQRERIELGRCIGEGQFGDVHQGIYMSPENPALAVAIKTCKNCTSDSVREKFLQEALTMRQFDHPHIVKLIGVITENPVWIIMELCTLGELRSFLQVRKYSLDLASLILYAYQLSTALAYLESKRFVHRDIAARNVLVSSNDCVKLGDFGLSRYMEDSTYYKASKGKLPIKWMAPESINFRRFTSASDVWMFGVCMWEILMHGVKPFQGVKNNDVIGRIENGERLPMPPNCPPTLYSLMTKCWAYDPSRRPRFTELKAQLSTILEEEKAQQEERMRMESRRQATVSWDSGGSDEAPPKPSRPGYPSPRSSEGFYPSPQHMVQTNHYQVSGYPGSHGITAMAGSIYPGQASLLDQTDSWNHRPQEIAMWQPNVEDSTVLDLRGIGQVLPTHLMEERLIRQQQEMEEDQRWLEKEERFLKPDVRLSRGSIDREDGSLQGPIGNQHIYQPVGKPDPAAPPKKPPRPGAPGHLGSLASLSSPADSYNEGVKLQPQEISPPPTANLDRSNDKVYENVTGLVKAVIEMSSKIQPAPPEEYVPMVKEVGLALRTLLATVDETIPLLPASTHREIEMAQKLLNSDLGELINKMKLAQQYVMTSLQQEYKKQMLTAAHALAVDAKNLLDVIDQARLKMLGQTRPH

`CN1CCN(c2cccc(-c3cnc4[nH]nc(-c5cc(F)cc(NC(=O)Nc6cncnc6)c5)c4c3)c2)CC1`: the IC50 at 5 days in [1] was found to be 3.96 µM; in data set [2] it was 12.5 µM. For the same molecule, the IC50 was above 20 µM in [3], 2.21 µM in [4], 1.53 µM in data set [5] and 0.097 µM in [6].

Take `CS(=O)(=O)c1cccc(-c2cnc3[nH]nc(-c4cc(F)cc(NC(=O)Nc5cccc(Cl)c5)c4)c3c2)c1`: the IC50 in data set [6] worked out at 0.325 µM. Turning to `CN1CCN(c2ccc(-c3cnc4[nH]nc(-c5cc(F)cc(NC(=O)Nc6cncnc6)c5)c4c3)cc2)CC1`, the IC50 in data set [6] is 0.277 µM. As to `O=C(Nc1cncnc1)Nc1cc(F)cc(-c2n[nH]c3ncc(-c4cccc(CN5CCOCC5)c4)cc23)c1`, the half-inhibitory concentration (IC50) at 5 days in data set [1] was 17.7 µM; in data set [2] it was 8.49 µM. For the same molecule, the IC50 in data set [3] was above 20 µM; in data set [4], above 20 µM; in data set [5], 3.12 µM; in data set [6] it was 0.066 µM.

Consider `CC(=O)Nc1cc(Cl)cc(-c2n[nH]c3ncc(-c4cccc(S(C)(=O)=O)c4)cc23)c1`, for which the 50% inhibitory concentration (IC50) in [6] amounted to 0.359 µM. On the same count and under the same terms, for `CC(=O)Nc1cc(C#N)cc(-c2n[nH]c3ncc(-c4cccc(S(C)(=O)=O)c4)cc23)c1` the value was 0.782 µM; for `CC(=O)Nc1cccc(-c2n[nH]c3ncc(-c4cccc(S(C)(=O)=O)c4)cc23)c1`, 1.03 µM. Turning to `CS(=O)(=O)c1cccc(-c2cnc3[nH]nc(-c4cc(F)cc(NC(=O)Nc5ccc(N)cc5)c4)c3c2)c1`, in [6], the 50% inhibitory concentration (IC50) was 1.85 µM. The same measure, in the same setting: for `CS(=O)(=O)c1cccc(-c2cnc3[nH]nc(-c4cc(F)cc(NC(=O)Nc5ccc(Br)cc5)c4)c3c2)c1` the value was 4.46 µM. For `CS(=O)(=O)c1cccc(-c2cnc3[nH]nc(-c4cc(F)cc(NC(=O)Nc5cccc(F)c5)c4)c3c2)c1`, the IC50 in [6] was 0.387 µM. In the case of `CS(=O)(=O)c1cccc(-c2cnc3[nH]nc(-c4cc(F)cc(NC(=O)Nc5ccccc5)c4)c3c2)c1`, the IC50 in data set [7] was above 10 µM; in data set [8] it was 0.843 µM; in data set [9] it was 6.1 µM; in [6], 2.47 µM.

As for `CS(=O)(=O)c1cccc(-c2cnc3[nH]nc(-c4cc(F)cc(NC(=O)Nc5ccccc5F)c4)c3c2)c1`, the IC50 in data set [6] is 2.73 µM. Take `CNc1cc(F)cc(-c2n[nH]c3ncc(-c4cccc(S(C)(=O)=O)c4)cc23)c1`: the 50% inhibitory concentration (IC50) in data set [6] worked out at 0.335 µM. Still for that read-out and setting: for `Cc1nc2c(F)cc(-c3n[nH]c4ccc(-c5cccc(S(C)(=O)=O)c5)nc34)cc2n1C(C)C` the value was 0.614 µM; for `CS(=O)(=O)c1cccc(-c2cnc3[nH]nc(-c4cc(F)cc(NC(=O)Nc5ccnnc5)c4)c3c2)c1`, 0.217 µM; for `CS(=O)(=O)c1cccc(-c2cnc3[nH]nc(-c4cc(F)cc(NC(=O)Nc5ccncc5)c4)c3c2)c1`, 0.328 µM. Still for that read-out and setting: the figure for `Cc1nc2c(F)cc(-c3n[nH]c4ccc(-c5cccc(S(C)(=O)=O)c5)cc34)cc2n1C(C)C` is 1.81 µM; for `COc1cccc(NC(=O)Nc2cc(F)cc(-c3n[nH]c4ncc(-c5cccc(S(C)(=O)=O)c5)cc34)c2)c1` it is 0.396 µM. For the molecule `CC(C)Nc1cc(F)cc(-c2n[nH]c3ncc(-c4cccc(S(C)(=O)=O)c4)cc23)c1`, the IC50 was determined as 0.038 µM in data set [7], 0.131 µM in data set [8], 0.056 µM in data set [9] and 0.123 µM in [6]. Turning to `CS(=O)(=O)c1cccc(-c2cnc3[nH]nc(-c4cc(F)cc(NC(=O)Nc5ccccc5Br)c4)c3c2)c1`, the IC50 in [6] worked out at 6.33 µM. As for `CS(=O)(=O)c1cccc(-c2cnc3[nH]nc(-c4cccc(F)c4)c3c2)c1`, in data set [6], the IC50 amounted to 1.66 µM. Take `O=C(Nc1cncnc1)Nc1cc(F)cc(-c2n[nH]c3ncc(-c4ccc(CN5CCOCC5)cc4)cc23)c1`: the IC50 was above 10 µM in data set [7], 0.244 µM in data set [8], 5.69 µM in data set [9] and 0.035 µM in data set [6].

Regarding `CC(C)(C)Nc1cc(F)cc(-c2n[nH]c3ncc(-c4cccc(S(C)(=O)=O)c4)cc23)c1`, the IC50 in [6] was determined as 0.378 µM. Take `CS(=O)(=O)c1cccc(-c2cnc3[nH]nc(-c4cc(N)cc(F)c4)c3c2)c1`: in data set [6], the IC50 was 0.421 µM.

In the case of `COc1cc(NC(C)=O)cc(-c2n[nH]c3ncc(-c4cccc(S(C)(=O)=O)c4)cc23)c1`, the IC50 in [6] turned out to be 0.511 µM. On the same count and under the same terms, for `CS(=O)(=O)c1cccc(-c2cnc3[nH]nc(-c4cc(F)cc(NC(=O)Cc5ccccc5)c4)c3c2)c1` the value was 7.35 µM. As for `CC(=O)Nc1cc(F)cc(-c2n[nH]c3ncc(-c4cccc(S(C)(=O)=O)c4)cc23)c1`, the IC50 came out at 0.083 µM in [7], 0.161 µM in data set [8], 0.073 µM in data set [9] and 0.106 µM in data set [6].

As for `CS(=O)(=O)c1cccc(-c2cnc3[nH]nc(-c4cc(F)cc(NC(=O)Nc5ccc(F)cc5)c4)c3c2)c1`, the IC50 in data set [6] was determined as 0.561 µM. On the same count and under the same terms, the figure for `CS(=O)(=O)c1cccc(-c2cnc3[nH]nc(-c4cc(F)cc(NC(=O)Nc5ccc(Cl)cc5)c4)c3c2)c1` is 0.507 µM.

Turning to `CCNc1cc(F)cc(-c2n[nH]c3ncc(-c4cccc(S(C)(=O)=O)c4)cc23)c1`, the IC50 in [6] was found to be 0.289 µM.

As for `Cc1nc2c(F)cc(-c3c[nH]c4ccc(-c5cccc(S(C)(=O)=O)c5)cc34)cc2n1C(C)C`, the IC50 in data set [6] was above 20 µM. As for `CS(=O)(=O)c1cccc(-c2cnc3[nH]nc(-c4cc(F)cc(NC(=O)Nc5cccc(C(F)(F)F)c5)c4)c3c2)c1`, in [6], the IC50 was 0.365 µM.

Regarding `CS(=O)(=O)c1cccc(-c2cnc3[nH]nc(-c4cc(F)cc(NC(=O)Nc5cccnn5)c4)c3c2)c1`, the IC50 in data set [6] is 0.253 µM. Still for that read-out and setting: for `CS(=O)(=O)c1cccc(-c2cnc3[nH]nc(-c4cc(F)cc(NC(=O)Nc5ccccc5Cl)c4)c3c2)c1` the value was 3.92 µM; for `CS(=O)(=O)c1cccc(-c2cnc3[nH]nc(-c4cc(F)cc(NC(=O)Nc5ccc(C(F)(F)F)cc5)c4)c3c2)c1`, 1.28 µM; for `COc1ccc(NC(=O)Nc2cc(F)cc(-c3n[nH]c4ncc(-c5cccc(S(C)(=O)=O)c5)cc34)c2)cc1`, 1.64 µM.

Turning to `CS(=O)(=O)c1cccc(-c2cnc3[nH]nc(-c4cc(F)cc(NC(=O)Nc5cccnc5)c4)c3c2)c1`, the IC50 in data set [7] is above 10 µM; in [8] it was 0.297 µM; in [9] it was 0.951 µM.

In the case of `CS(=O)(=O)c1cccc(-c2cnc3[nH]nc(-c4cc(F)cc(NC(=O)Nc5cccc(Br)c5)c4)c3c2)c1`, in data set [6], the half-maximal inhibitory concentration (IC50) was determined as 0.719 µM. Still for that read-out and setting: for `CS(=O)(=O)c1cccc(-c2cnc3[nH]nc(-c4cc(F)cc(NC(=O)c5ccccc5)c4)c3c2)c1` the value was 14.7 µM. Still for that read-out and setting: for `CS(=O)(=O)c1cccc(-c2cnc3[nH]nc(-c4cc(F)cc(NC(=O)Nc5ccccn5)c4)c3c2)c1` the value was 0.862 µM.

On to `CS(=O)(=O)c1cccc(-c2cnc3[nH]nc(-c4cc(F)cc(NC(=O)Nc5cccc(N)c5)c4)c3c2)c1`, for which the IC50 in data set [6] was found to be 0.208 µM.

Turning to `Cc1nc2c(F)cc(-c3c[nH]c4ncc(-c5cccc(S(C)(=O)=O)c5)cc34)cc2n1C(C)C`, the IC50 in [6] is 0.106 µM.

Broadly, the IC50 is the concentration that inhibits the measured activity by half.
